Assay results reported in patent US8815901B2 (Novartis AG, priority 2008, dated 2014).

Target: FGFR3 kinase (Homo sapiens (Human), UniProt P22607, K650E)
Experiment: FGFR3 kinase inhibition assay (radiometric filter binding / LanthaScreen TR-FRET)
Format: biochemical
Details: read-out: rating (FGFR3 kinase IC50)
Description: Enzyme activities were measured by mixing 10 μL of a 3-fold concentrated compound solution or control with 10 μL of the corresponding substrate mixture (peptidic substrate, ATP and [γ^33P]ATP). The reactions were initiated by addition of 10 μL of a 3-fold concentrated solution of the respective enzyme in assay buffer.
Filter binding (FB) method: FB assays were carried out in 96-well plates at room temperature for 10 min in a finial volume of 30 μL including the components as indicated in section above. […] After spotting, vacuum was connected and each well rinsed with 200 μL 0.5% H3PO4. Free membranes were removed and washed 4 times on a shaker with 1% H3PO4 and once with ethanol. Membranes were dried and overlaid with addition of 10 μL/well of a scintillation fluid. The plates were eventually sealed and counted in a microplate scintillation counter. IC50 values were calculated by linear regression analysis of the percentage inhibition of the compound.
The assay has been run at room temperature on a liquid handling robot. […] After an incubation time of 45 min in the dark, the plates were transferred into a fluorescence reader for counting.
Compounds of formula (I) are assayed to measure their capacity to inhibit FGFR3 kinase as described above.

Sequence of FGFR3 kinase (P22607 23-806 K650E): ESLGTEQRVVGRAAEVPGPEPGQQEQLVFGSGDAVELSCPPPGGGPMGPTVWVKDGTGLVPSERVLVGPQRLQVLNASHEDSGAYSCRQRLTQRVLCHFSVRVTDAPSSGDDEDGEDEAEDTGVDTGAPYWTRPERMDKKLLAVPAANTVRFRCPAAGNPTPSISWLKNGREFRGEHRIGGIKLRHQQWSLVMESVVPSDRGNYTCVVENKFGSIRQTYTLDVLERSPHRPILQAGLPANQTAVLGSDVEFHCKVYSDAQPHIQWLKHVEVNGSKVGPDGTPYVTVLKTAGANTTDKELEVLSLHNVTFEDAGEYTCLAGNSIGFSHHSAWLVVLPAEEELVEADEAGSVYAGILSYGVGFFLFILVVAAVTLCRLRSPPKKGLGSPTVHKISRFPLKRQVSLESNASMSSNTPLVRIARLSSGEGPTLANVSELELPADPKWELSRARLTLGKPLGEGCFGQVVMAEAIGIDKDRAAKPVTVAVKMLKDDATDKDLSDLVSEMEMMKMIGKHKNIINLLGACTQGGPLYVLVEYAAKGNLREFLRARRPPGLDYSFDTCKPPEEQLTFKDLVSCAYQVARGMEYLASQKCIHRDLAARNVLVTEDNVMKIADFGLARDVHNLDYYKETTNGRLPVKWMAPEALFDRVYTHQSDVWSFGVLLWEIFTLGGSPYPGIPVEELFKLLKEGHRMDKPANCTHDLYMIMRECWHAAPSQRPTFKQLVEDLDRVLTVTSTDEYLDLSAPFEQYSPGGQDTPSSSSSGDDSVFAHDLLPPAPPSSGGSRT

| IC50 [µM] | SMILES |
| --- | --- |
| < 0.1 | CCN1CCN(c2ccc(NC(=O)c3ccc(-c4c(Cl)c(OC)cc(OC)c4Cl)c4nccnc34)cc2)CC1 [Example 1, 8-(2,6-Dichloro-3,5-dimethoxy-phenyl)-quinoxaline-5-carboxylic acid [4-(4-ethylpiperazin-1-yl)-phenyl]-amide] |
| < 0.1 | COc1cc(OC)c(Cl)c(-c2ccc(C(=O)Nc3ccc(OCCN(C)C)cc3)c3nccnc23)c1Cl [Example 5, 8-(2,6-Dichloro-3,5-dimethoxy-phenyl)-quinoxaline-5-carboxylic acid [4-(2-dimethylamino-ethoxy)-phenyl]-amide] |
| 0.5 to 50 | COc1cc(OC)c(Cl)c(-c2ccc(C(=O)Nc3ccc(O)cc3)c3nccnc23)c1Cl [Example 7, 8-(2,6-Dichloro-3,5-dimethoxy-phenyl)-quinoxaline-5-carboxylic acid (4-hydroxyphenyl)-amide] |
| 0.5 to 50 | COc1cc(OC)c(Cl)c(-c2ccc(C(=O)Nc3nnc[nH]3)c3nccnc23)c1Cl [Example 17, 8-(2,6-Dichloro-3,5-dimethoxy-phenyl)-quinoxaline-5-carboxylic acid (4H-[1,2,4]triazol-3-yl)-amide] |
| < 0.1 | COc1cc(OC)c(Cl)c(-c2ccc(C(=O)Nc3ccc(N4CCN(C(C)C)CC4)nc3)c3nccnc23)c1Cl [Example 33, 8-(2,6-Dichloro-3,5-dimethoxy-phenyl)-quinoxaline-5-carboxylic acid [6-(4-isopropyl-piperazin-1-yl)-pyridin-3-yl]-amide] |
| 0.5 to 50 | COc1ccc(Cl)c(-c2ccc(C(=O)Nc3ccc(OCCN(C)C)cc3)c3nccnc23)c1 [Example 65, 8-(2-Chloro-5-methoxy-phenyl)-quinoxaline-5-carboxylic acid [4-(2-dimethylamino-ethoxy)-phenyl]-amide] |
| 0.5 to 50 | CCN1CCN(c2ccc(NC(=O)c3ccc(-c4c(C)cccc4C)c4nccnc34)cc2)CC1 [Example 72, 8-(2,6-Dimethyl-phenyl)-quinoxaline-5-carboxylic acid [4-(4-ethyl-piperazin-1-yl)-phenyl]-amide] |
| < 0.1 | COc1cc(OC)c(Cl)c(-c2ccc(C(=O)Nc3ccc(CN(C)CCN(C)C)cn3)c3nccnc23)c1Cl [Example 81, 8-(2,6-Dichloro-3,5-dimethoxy-phenyl)-quinoxaline-5-carboxylic acid (5-{[(2-dimethylamino-ethyl)-methyl-amino]-methyl}-pyridin-2-yl)-amide] |
| 0.5 to 50 | COc1cc(OC)c(Cl)c(-c2ccc(C(=O)Nc3cccnc3)c3ncc(N(C)CCN(C)C)nc23)c1Cl [Example 87, 8-(2,6-Dichloro-3,5-dimethoxy-phenyl)-2-[(2-dimethylamino-ethyl)-methyl-amino]-quinoxaline-5-carboxylic acid pyridin-3-ylamide] |
| < 0.1 | CCN1CCN(Cc2ccc(NC(=O)c3ccc(-c4c(F)c(OC)cc(OC)c4F)c4nccnc34)cn2)CC1 [Example 88, 8-(2,6-Difluoro-3,5-dimethoxy-phenyl)-quinoxaline-5-carboxylic acid [6-(4-ethyl-piperazin-1-ylmethyl)-pyridin-3-yl]-amide] |
| < 0.1 | COc1cc(OC)c(F)c(-c2ccc(C(=O)Nc3ccc(CN4CCN(C)CC4)nc3)c3nccnc23)c1F [Example 89, 8-(2,6-Difluoro-3,5-dimethoxy-phenyl)-quinoxaline-5-carboxylic acid [6-(4-methyl-piperazin-1-ylmethyl)-pyridin-3-yl]-amide] |
| 0.1 to 0.5 | COc1cc(OC)c(F)c(-c2ccc(C(=O)Nc3cccnc3)c3nccnc23)c1F [Example 90, 8-(2,6-Difluoro-3,5-dimethoxy-phenyl)-quinoxaline-5-carboxylic acid pyridin-3-ylamide] |
| 0.1 to 0.5 | COc1cc(OC)c(Cl)c(-c2ccc(C(=O)Nc3ccc(CN4CCS(=O)(=O)CC4)cn3)c3nccnc23)c1Cl [Example 104, 8-(2,6-Dichloro-3,5-dimethoxy-phenyl)-quinoxaline-5-carboxylic acid [5-(1,1-dioxothiomorpholin-4-ylmethyl)-pyridin-2-yl]-amide] |
| 0.5 to 50 | CCN1CCN(Cc2ccc(NC(=O)c3ccc(-c4cc(OC)cc(OC)c4)c4nccnc34)nc2)CC1 [Example 115, 8-(3,5-Dimethoxy-phenyl)-quinoxaline-5-carboxylic acid [5-(4-ethyl-piperazin-1-ylmethyl)-pyridin-2-yl]-amide] |
| 0.5 to 50 | COc1cc(OC)cc(-c2ccc(C(=O)Nc3ccc(CN4CCNCC4)cn3)c3nccnc23)c1 [Example 117] |
| 0.5 to 50 | COc1cc(OC)c(Cl)c(-c2ccc(C(=O)Nc3ccn(CCN(C)C)c3)c3nccnc23)c1Cl [Example 121, 8-(2,6-Dichloro-3,5-dimethoxy-phenyl)-quinoxaline-5-carboxylic acid [1-(2-dimethylamino-ethyl)-1H-pyrrol-3-yl]-amide] |
| < 0.1 | COc1cc(OC)c(F)c(-c2ccc(C(=O)Nc3ccc(CN4CCS(=O)(=O)CC4)cn3)c3nccnc23)c1F [Example 140, 8-(2,6-Difluoro-3,5-dimethoxy-phenyl)-quinoxaline-5-carboxylic acid [5-(1,1-dioxo-thiomorpholin-4-ylmethyl)-pyridin-2-yl]-amide] |
| < 0.1 | COc1cc(OC)c(F)c(-c2ccc(C(=O)Nc3nc(CN4CCN(C)CC4)c[nH]3)c3nccnc23)c1F [Example 141, 8-(2,6-Difluoro-3,5-dimethoxy-phenyl)-quinoxaline-5-carboxylic acid [4-(4-methyl-piperazin-1-ylmethyl)-1H-imidazol-2-yl]-amide] |
| 0.5 to 50 | COc1cc(OC)c(Cl)c(-c2ccc(C(=O)Nc3nccn3Cc3ccccc3)c3ncccc23)c1Cl [Example 160, 5-(2,6-Dichloro-3,5-dimethoxy-phenyl)-quinoline-8-carboxylic acid (1-benzyl-1H-imidazol-2-yl)-amide] |
| < 0.1 | COc1cc(OC)c(Cl)c(-c2ccc(C(=O)Nc3ncc[nH]3)c3ncccc23)c1Cl [Example 161, 5-(2,6-Dichloro-3,5-dimethoxy-phenyl)-quinoline-8-carboxylic acid (1H-imidazol-2-yl)-amide] |
| 0.1 to 0.5 | COc1cc(OC)c(Cl)c(-c2ccc(C(=O)Nc3cnc[nH]3)c3ncccc23)c1Cl [Example 162, 5-(2,6-Dichloro-3,5-dimethoxy-phenyl)-quinoline-8-carboxylic acid (3H-imidazol-4-yl)-amide] |
| 0.5 to 50 | COc1cc(OC)c(Cl)c(-c2ccc(C(=O)Nc3nnc[nH]3)c3ncccc23)c1Cl [Example 163] |
| < 0.1 | COc1cc(OC)c(Cl)c(-c2ccc(C(=O)Nc3ccc(CN4CCN(C)CC4)cn3)c3ncccc23)c1Cl [Example 164, 5-(2,6-Dichloro-3,5-dimethoxy-phenyl)-quinoline-8-carboxylic acid [5-(4-methyl-piperazin-1-ylmethyl)-pyridin-2-yl]-amide] |
| 0.1 to 0.5 | CCN1CCN(Cc2ccc(NC(=O)c3ccc(-c4c(Cl)c(OC)cc(OC)c4Cl)c4cccnc34)nc2)CC1 [Example 165, 5-(2,6-Dichloro-3,5-dimethoxy-phenyl)-quinoline-8-carboxylic acid [5-(4-ethyl-piperazin-1-ylmethyl)-pyridin-2-yl]-amide] |
| 0.1 to 0.5 | COc1cc(OC)c(Cl)c(-c2ccc(C(=O)Nc3ccc(CN4CCN(C)CC4)nc3)c3ncccc23)c1Cl [Example 168, 5-(2,6-Dichloro-3,5-dimethoxy-phenyl)-quinoline-8-carboxylic acid [6-(4-methyl-piperazin-1-ylmethyl)-pyridin-3-yl]-amide] |
| 0.1 to 0.5 | CCN1CCN(Cc2ccc(NC(=O)c3ccc(-c4c(Cl)c(OC)cc(OC)c4Cl)c4cccnc34)cn2)CC1 [Example 169, 5-(2,6-Dichloro-3,5-dimethoxy-phenyl)-quinoline-8-carboxylic acid [6-(4-ethyl-piperazin-1-ylmethyl)-pyridin-3-yl]-amide] |
| 0.5 to 50 | COc1cc(OC)c(Cl)c(-c2ccc(C(=O)Nc3ccc(CN4CCNCC4)nc3)c3ncccc23)c1Cl [Example 171, 5-(2,6-Dichloro-3,5-dimethoxy-phenyl)-quinoline-8-carboxylic acid (6-piperazin-1-ylmethyl-pyridin-3-yl)-amide] |

| SMILES | IC50 [µM] |
| --- | --- |
| COc1cc(OC)c(Cl)c(-c2ccc(C(=O)Nc3ccc(N(C)C4CCN(C)CC4)nc3)c3nccnc23)c1Cl [Example 37, 8-(2,6-Dichloro-3,5-dimethoxy-phenyl)-quinoxaline-5-carboxylic acid {6-[methyl-(1-methyl-piperidin-4-yl)-amino]-pyridin-3-yl}-amide] | < 0.1 |
